# In US20100204222A1, “PYRIDOPYRIMIDINE DERIVATIVES AS P13 KINASE INHIBITORS” (GlaxoSmithKline, LLC, priority 2007, published 2010):
# Target: T1, PI3Kα (Homo sapiens, UniProt P42336)
# T1 construct: His; made in house
# Test: PI3K alpha TR-FRET assay / PI3K alpha Leadseeker SPA assay
# Type: biochemical
# Details: in at least one experimental run; read-out: IC50 value against PI3Kα
# Experimental: Compounds of the present invention were tested according to the following assays and found as inhibitors of PI3 kinases, particularly PI3Kα. The exemplified compounds were tested and found active against PI3Kα. The IC50's ranged from about 1 nM to 10 μM.
# The PI3-Kinase assay has been developed and optimized from a kit produced by Upstate (Millipore). Briefly, this kit contains a biotinylated PIP3 which forms a HTRF (homogeneous time-resolved fluorescence energy transfer) complex when mixed with a Europium labeled anti-GST monoclonal antibody, a GST tagged pleckstrin homology (PH) domain, and Streptavidin-Allophycocyanin (APC). The unlabeled PIP3 produced by PI 3-Kinase activity displaces biotin-PIP3 from the complex resulting in a loss of energy transfer and thus a decrease in signal. Millipore, PI 3-Kinase (human) HTRF™ Assay, technical document associated with catalog# 33-017
# Compounds are serially diluted (3-fold in 100% DMSO) across a polypropylene 120 μL mother plate from column 1 to column 12 and column 13 to column 24, leaving columns 6 and 18 containing only DMSO to yield 11 concentrations for each test compound. Once titrations are made, 0.1 μL is transferred to the assay plates (Greiner 784075). This assay plate contains three controls: column 6 with DMSO, and column 18 with alternating 20 μM wortmannin and 40 μM PIP3. […] The PIP3 control is dispensed into the plate manually via a matrix pipettor, 1 μL of 200 μM PIP3 in 1× Reaction buffer to wells 18 B, D, F, H, J, L, N, P.
# The PI3-Kinase assay has been developed and optimized from a kit produced by Upstate (Millipore). The assay kit (cat: 33-017) contains seven reagents: 1) 4× Reaction Buffer, 2) PIP2 (1 mM), 3) Stop A, 4) Stop B, 5) Detection Mix A, 6) Detection Mix B, 7) Detection Mix C. In addition the following items were obtained or purchased, PI3Kinase (prepared in-house), 4×PI3K Detection Buffer (Millipore), dithiothreitol (Sigma, D-5545), Adenosine-5′-triphosphate (ATP, Sigma, A-6419), PIP3 (1,2-dioctanoyl-sn-glycero-3[phosphoinositil-3,4,5-triphosphate]tetraammonium salt (Avanti polar lipids, 850186P), DMSO (Sigma, 472301), Wortmannin (Sigma, W-1628).
# Prepare 1×PI3Kinase Reaction Buffer by diluting stock 1:4 with de-ionized water, freshly prepared DTT is added at a final concentration of 5 mM on the day of use. Enzyme addition and compound preincubation is initiated by the addition of 2.5 μL of 2× enzyme solution, PI3K alpha in 1× reaction buffer, to all wells using a Multidrop Combi. Plates are incubated at room temperature for 15 minutes. Substrate addition and reaction initiation is completed by the addition of 2.5 μL of 2× substrate solution, PIP2 and ATP in 1× reaction buffer, to all wells using a Multidrop Combi. […] Incubate one hour, evaluate the HTRF signal on the Envision plate reader. […]
# T1 sequence (P42336 whole entry): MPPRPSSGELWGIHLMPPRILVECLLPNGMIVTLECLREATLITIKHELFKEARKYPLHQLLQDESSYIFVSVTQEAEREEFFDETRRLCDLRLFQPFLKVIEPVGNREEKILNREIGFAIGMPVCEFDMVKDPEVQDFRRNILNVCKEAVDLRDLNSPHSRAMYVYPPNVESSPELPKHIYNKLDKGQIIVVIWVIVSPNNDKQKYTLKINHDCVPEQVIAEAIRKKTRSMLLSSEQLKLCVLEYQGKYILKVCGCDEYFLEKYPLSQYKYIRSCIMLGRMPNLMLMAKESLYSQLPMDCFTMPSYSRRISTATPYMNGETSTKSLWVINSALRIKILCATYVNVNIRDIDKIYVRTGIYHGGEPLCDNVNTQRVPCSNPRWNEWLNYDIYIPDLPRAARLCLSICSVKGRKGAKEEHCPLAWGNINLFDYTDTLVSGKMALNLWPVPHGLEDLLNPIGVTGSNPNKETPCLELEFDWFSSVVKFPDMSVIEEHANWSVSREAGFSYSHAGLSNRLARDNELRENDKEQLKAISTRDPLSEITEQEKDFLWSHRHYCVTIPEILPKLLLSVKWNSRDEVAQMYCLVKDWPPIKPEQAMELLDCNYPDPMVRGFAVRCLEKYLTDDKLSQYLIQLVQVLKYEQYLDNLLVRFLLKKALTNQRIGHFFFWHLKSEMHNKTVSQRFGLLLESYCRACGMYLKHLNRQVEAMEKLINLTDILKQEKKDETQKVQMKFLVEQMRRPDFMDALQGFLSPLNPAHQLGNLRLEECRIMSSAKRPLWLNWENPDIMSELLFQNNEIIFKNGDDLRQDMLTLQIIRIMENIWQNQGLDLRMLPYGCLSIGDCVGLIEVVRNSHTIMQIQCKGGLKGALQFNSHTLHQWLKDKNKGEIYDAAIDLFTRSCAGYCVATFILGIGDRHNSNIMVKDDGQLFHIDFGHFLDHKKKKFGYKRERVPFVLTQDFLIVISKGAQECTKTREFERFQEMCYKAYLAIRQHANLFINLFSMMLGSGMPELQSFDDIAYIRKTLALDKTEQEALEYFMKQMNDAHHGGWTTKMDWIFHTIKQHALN
# T1 sequence (P27986 whole entry partner): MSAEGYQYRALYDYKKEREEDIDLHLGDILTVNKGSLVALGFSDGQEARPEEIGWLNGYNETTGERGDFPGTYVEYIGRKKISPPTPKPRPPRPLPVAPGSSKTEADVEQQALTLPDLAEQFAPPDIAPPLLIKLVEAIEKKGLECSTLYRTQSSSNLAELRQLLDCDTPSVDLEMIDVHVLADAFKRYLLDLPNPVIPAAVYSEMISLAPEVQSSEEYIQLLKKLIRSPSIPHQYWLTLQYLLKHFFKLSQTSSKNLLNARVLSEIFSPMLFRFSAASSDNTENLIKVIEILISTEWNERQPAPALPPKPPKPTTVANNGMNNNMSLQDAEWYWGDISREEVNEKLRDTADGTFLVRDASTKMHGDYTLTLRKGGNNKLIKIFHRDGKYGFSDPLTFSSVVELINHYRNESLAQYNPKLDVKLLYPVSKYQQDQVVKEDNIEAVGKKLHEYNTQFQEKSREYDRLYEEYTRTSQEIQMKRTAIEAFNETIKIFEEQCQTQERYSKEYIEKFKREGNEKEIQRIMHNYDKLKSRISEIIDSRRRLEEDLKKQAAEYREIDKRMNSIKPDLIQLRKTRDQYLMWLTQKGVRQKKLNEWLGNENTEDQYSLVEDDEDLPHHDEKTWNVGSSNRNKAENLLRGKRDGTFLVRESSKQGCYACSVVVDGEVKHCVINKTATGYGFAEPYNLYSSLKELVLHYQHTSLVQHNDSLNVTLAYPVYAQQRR
row,SMILES,IC50 [nM]
1,"O=S(=O)(Nc1cncc(-c2ccc3ncnc(N4CCOCC4)c3n2)c1)c1ccccc1 [Example 2, N-{5-[4-(4-morpholinyl)pyrido[3,2-d]pyrimidin-6-yl]-3-pyridinyl}benzenesulfonamide]",0.7
2,"CN(C)c1ncnc2ccc(-c3cncc(NS(=O)(=O)c4ccccc4)c3)nc12 [Example 1, N-{5-[4-(dimethylamino)pyrido[3,2-d]pyrimidin-6-yl]-3-pyridinyl}benzenesulfonamide]",2
3,"O=S(=O)(Nc1cc(-c2ccc3ncnc(N4CCOCC4)c3n2)cnc1Cl)c1ccc(F)cc1F [Example 7, N-{2-chloro-5-[4-(4-morpholinyl)pyrido[3,2-d]pyrimidin-6-yl]-3-pyridinyl}-2,4-difluorobenzenesulfonamide]",0.02
4,"COc1ncc(-c2ccc3ncnc(N4CCOCC4)c3n2)cc1NS(=O)(=O)C1CC1 [Example 5, N-{2-(methyloxy)-5-[4-(4-morpholinyl)pyrido[3,2-d]pyrimidin-6-yl]-3-pyridinyl}cyclopropanesulfonamide]",0.5
